Key:
SYK kinase = biological target: T1, SYK kinase (Homo sapiens, UniProt P43405); assay: SYK Assay (OMNIA KINASE ASSAY, SOX peptide fluorescence); assay type: biochemical; details: apparent Ki calculated from the IC50 using the Cheng-Prusoff equation; 1 mM ATP, 30° C.; read-out: SYK Activities: Ki
T1 construct: purchased Invitrogen, Carlsbad
Summary of the method: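 Continuous Omnia assay: SYK phosphorylation of SOX-labelled Tyr 7 peptide (10 µM) with 1 mM ATP and 0.2 mM DTT at 30 °C. Fluorescence (ex 360/em 485 nm) read every 30 s for 30 min. Reaction velocity versus inhibitor concentration gives IC50, converted to apparent Ki by Cheng-Prusoff.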

LRRK2 = LRRK2 (Homo sapiens, UniProt Q5S007); assay: LRRK2-LRRK2 G2019S-Assay (LanthaScreen Eu Kinase Binding Assay); details: 5 nM LRRK2 or their mutants, 10 nM tracer 236, RT 1 h; read-out: LRRK2 Activities: IC50
Chain of LRRK2 (Q5S007 970-2527 limits assumed): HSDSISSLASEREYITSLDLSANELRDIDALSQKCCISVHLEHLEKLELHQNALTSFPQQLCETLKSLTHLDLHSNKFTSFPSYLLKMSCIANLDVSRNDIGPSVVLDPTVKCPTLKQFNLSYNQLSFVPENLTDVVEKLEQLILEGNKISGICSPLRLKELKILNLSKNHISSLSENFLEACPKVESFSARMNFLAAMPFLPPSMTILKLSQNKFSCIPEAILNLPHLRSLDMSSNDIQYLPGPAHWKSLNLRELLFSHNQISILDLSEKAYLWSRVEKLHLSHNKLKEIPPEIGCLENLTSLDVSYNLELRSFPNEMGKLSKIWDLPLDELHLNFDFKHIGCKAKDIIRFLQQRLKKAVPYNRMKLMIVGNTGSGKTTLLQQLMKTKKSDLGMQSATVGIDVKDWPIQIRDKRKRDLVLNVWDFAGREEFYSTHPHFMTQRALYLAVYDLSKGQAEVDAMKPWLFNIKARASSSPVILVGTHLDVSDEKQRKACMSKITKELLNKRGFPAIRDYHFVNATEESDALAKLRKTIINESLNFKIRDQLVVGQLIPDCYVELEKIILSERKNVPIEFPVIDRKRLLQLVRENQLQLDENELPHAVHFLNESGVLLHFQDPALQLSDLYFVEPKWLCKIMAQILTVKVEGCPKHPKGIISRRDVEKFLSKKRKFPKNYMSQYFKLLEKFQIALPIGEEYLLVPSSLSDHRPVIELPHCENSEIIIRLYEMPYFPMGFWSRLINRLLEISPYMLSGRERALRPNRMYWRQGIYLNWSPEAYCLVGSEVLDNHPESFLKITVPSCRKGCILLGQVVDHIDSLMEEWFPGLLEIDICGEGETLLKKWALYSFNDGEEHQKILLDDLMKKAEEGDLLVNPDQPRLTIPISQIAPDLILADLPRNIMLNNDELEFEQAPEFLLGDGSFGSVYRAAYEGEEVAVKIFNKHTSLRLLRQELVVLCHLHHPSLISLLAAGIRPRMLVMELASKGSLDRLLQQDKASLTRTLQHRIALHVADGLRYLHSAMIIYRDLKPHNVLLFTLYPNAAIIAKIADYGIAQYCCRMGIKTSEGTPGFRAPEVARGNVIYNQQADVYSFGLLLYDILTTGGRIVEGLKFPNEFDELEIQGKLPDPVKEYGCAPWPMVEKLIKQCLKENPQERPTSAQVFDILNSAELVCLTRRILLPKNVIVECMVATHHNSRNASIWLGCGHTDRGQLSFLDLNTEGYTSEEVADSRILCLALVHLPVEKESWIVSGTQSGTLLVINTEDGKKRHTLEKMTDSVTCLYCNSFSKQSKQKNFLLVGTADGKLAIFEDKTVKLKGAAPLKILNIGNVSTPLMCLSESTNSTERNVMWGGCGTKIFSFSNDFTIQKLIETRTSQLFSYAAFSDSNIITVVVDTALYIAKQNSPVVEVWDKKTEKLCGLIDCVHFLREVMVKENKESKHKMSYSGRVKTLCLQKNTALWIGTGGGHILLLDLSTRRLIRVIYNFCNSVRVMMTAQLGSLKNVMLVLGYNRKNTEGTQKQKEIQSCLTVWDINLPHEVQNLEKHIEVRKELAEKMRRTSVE
Summary of the method: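 TR-FRET tracer-displacement binding assay with 5 nM LRRK2 or mutant, 2 nM Eu-anti-GST antibody and 10 nM tracer 236 in kinase buffer A. Incubated 1 h at RT; 665/615 nm emission ratio read (ex 340 nm). IC50 from variable-slope sigmoidal fit.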

MYLK = MYLK (Homo sapiens, UniProt Q15746); assay: MYLK Assay (LanthaScreen Eu Kinase Binding Assay); details: 5 nM MYLK, 30 nM tracer 236, RT 1 h; read-out: MYLK Activities: IC50
Chain of MYLK (Q15746 whole entry): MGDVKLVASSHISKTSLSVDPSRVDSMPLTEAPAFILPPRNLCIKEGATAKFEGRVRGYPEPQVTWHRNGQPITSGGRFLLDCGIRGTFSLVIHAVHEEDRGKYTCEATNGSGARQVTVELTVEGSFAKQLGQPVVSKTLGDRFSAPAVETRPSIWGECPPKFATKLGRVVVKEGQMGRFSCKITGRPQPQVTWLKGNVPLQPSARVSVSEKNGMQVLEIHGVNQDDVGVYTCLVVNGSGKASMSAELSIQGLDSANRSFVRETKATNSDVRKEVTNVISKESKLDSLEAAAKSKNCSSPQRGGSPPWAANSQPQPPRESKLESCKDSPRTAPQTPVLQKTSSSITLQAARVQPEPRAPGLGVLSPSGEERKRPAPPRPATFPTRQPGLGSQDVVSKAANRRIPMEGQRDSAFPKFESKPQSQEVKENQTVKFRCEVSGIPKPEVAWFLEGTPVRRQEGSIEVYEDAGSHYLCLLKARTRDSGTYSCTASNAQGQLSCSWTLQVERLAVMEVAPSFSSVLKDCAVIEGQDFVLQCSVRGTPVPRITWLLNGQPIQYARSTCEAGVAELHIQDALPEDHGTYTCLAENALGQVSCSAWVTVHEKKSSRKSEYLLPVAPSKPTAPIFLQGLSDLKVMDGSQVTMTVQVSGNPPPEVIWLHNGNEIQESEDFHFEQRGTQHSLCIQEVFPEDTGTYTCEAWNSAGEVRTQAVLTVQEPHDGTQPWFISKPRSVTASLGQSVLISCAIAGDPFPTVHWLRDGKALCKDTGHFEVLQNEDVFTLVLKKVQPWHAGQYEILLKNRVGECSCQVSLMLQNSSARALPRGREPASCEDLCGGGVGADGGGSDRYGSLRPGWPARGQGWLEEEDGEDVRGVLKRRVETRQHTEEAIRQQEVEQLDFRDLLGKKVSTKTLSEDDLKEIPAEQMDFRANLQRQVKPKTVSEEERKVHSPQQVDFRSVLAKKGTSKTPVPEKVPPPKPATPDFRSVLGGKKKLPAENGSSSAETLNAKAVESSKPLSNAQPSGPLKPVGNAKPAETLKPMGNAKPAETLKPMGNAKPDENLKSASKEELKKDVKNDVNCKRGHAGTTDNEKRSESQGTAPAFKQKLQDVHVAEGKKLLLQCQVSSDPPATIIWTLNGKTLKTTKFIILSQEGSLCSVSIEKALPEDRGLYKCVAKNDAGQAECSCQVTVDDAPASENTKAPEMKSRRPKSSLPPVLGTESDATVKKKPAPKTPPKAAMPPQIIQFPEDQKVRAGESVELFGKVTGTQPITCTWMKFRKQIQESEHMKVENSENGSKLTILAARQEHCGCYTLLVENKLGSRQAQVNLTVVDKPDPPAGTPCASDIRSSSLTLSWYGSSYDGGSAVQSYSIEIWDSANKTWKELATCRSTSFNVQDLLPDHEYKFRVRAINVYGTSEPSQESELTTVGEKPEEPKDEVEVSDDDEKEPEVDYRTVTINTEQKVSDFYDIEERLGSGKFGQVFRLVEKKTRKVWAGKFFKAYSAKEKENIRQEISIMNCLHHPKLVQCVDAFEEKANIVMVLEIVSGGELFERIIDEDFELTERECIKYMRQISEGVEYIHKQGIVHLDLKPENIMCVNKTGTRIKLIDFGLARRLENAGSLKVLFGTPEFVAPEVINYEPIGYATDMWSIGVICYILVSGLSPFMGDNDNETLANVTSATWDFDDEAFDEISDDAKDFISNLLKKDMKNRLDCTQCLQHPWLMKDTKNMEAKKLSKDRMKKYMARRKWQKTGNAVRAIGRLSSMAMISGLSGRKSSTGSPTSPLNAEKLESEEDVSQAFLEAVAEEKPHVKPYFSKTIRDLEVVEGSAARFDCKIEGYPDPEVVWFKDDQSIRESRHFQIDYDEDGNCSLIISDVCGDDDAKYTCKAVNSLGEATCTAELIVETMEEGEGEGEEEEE
Protocol: In the assay LanthaScreen™ Eu Kinase Binding Assay by Invitrogen Corporation (Carlsbad) the effect of invention of a compound on the phosphorylation is determined by measurement of fluorescence intensity emission ratio based on the binding and displacement of a proprietary, Alexa Fluor® 647-labeled, ATP-competitive kinase inhibitor scaffold (kinase tracer) to the kinase of interest as described above.
To the wells of an 384 well small volume plate (Greiner, Frickenhausen) are added (i) the compound under test in 5% is DMSO/distilled water (5 μl), (ii) 5 μl of the kinase antibody mixture resulting in a final concentration 5 nM MYLK, 2 nM EU-Anti-GST antibody in 1× kinase buffer A. The reaction was started with addition of (iii) 5 μl resulting in a final concentration of 30 nM tracer 236. The assay plate was incubated at RT for 1 h and fluorescence intensity readings were collected using a TECAN M1000 at two wavelengths of λex 340/λem 615 nm and λex 340/λem 665 nm with a delay time of 100 μs and an integration time of 200 μs after 60 minutes. The emission ratio was calculated by division of the acceptor/tracer emission ([…]) by the antibody/donor emission ([…]). The inhibitor concentration was plotted versus the emission ratio to determine the IC50 using XLFit 5.0 (IDBS, Guildford) to fit to a sigmoidal dose response curve with a variable slope.

Row | Structure (SMILES) | Ki (SYK kinase) | IC50 (LRRK2) | IC50 (MYLK)
1 | NC(=O)c1cccc(Nc2nc(-c3ccccc3)nc3cn[nH]c23)c1 [Example #5, 3-((5-phenyl-1H-pyrazolo[4,3-d]pyrimidin-7-yl)amino)benzamide] | < 10 nM | 100 to 1000 nM | < 5000 nM
2 | COc1cccc(Nc2nc(-c3ccccc3)nc3cn[nH]c23)c1 [Example #8, N-(3-methoxyphenyl)-5-phenyl-1H-pyrazolo[4,3-d]pyrimidin-7-amine] | 10 to 100 nM |  | < 5000 nM
3 | CN1CCN(c2ccc(Nc3nc(-c4ccncc4)nc4cn[nH]c34)cc2)CC1 [Example #20, N-(4-(4-methylpiperazin-1-yl)phenyl)-5-(pyridin-4-yl)-1H-pyrazolo[4,3-d]pyrimidin-7-amine] | < 10 nM | 100 to 1000 nM | < 5000 nM
4 | O=C1COc2ccc(Nc3nc(-c4ccncc4)nc4cn[nH]c34)cc2N1 [Example #21, 6-((5-(pyridin-4-yl)-1H-pyrazolo[4,3-d]pyrimidin-7-yl)amino)-2H-benzo[b][1,4]oxazin-3(4H)-one] | 100 to 1000 nM | 100 to 1000 nM | < 5000 nM
5 | COc1ccc(-c2nc(Nc3ccc(N4CCN(C)CC4)cc3)c3[nH]ncc3n2)cc1OC [Example #34, 5-(3,4-dimethoxyphenyl)-N-(4-(4-methylpiperazin-1-yl)phenyl)-1H-pyrazolo[4,3-d]pyrimidin-7-amine] | < 10 nM | 100 to 1000 nM | < 5000 nM
6 | CN1CCN(c2ccc(Nc3nc(-c4ccccc4)nc4cn[nH]c34)cc2)CC1 [Example #35, N-(4-(4-methylpiperazin-1-yl)phenyl)-5-phenyl-1H-pyrazolo[4,3-d]pyrimidin-7-amine] | < 10 nM | 100 to 1000 nM | < 5000 nM
7 | c1cc(Nc2nc(-c3cc[nH]n3)nc3cn[nH]c23)n[nH]1 [Example #45, N,5-di(1H-pyrazol-3-yl)-1H-pyrazolo[4,3-d]pyrimidin-7-amine] | 100 to 1000 nM |  | < 5000 nM
8 | CN1CCN(c2ccc(Nc3nc(-c4ccc(N5CCCC5)nc4)nc4cn[nH]c34)cc2)CC1 [Example #46, N-(4-(4-methylpiperazin-1-yl)phenyl)-5-(6-(pyrrolidin-1-yl)pyridin-3-yl)-1H-pyrazolo[4,3-d]pyrimidin-7-amine] | < 10 nM | 10 to 100 nM | < 5000 nM
9 | c1ccc(-c2nc(Nc3cc(C4CC4)[nH]n3)c3[nH]ncc3n2)cc1 [Example #57, N-(5-cyclopropyl-1H-pyrazol-3-yl)-5-phenyl-1H-pyrazolo[4,3-d]pyrimidin-7-amine] | 10 to 100 nM |  | < 5000 nM
10 | COc1ccc(-c2nc(Nc3ccc(OC)c(OC)c3)c3[nH]ncc3n2)cc1 [Example #58, N-(3,4-dimethoxyphenyl)-5-(4-methoxyphenyl)-1H-pyrazolo[4,3-d]pyrimidin-7-amine] | < 10 nM | 100 to 1000 nM | < 5000 nM
11 | COc1ccc(-c2nc(Nc3ccc(C(=O)N4CCCC4)cc3)c3[nH]ncc3n2)cc1 [Example #160, (4-((5-(4-methoxyphenyl)-1H-pyrazolo[4,3-d]pyrimidin-7-yl)amino)phenyl)(pyrrolidin-1-yl)methanone] | < 10 nM |  | < 5000 nM
12 | CN1CCN(c2ccc(Nc3nc(-c4cc(C(=O)O)cs4)nc4cn[nH]c34)cc2)CC1 [Example #175, 5-(7-((4-(4-methylpiperazin-1-yl)phenyl)amino)-1H-pyrazolo[4,3-d]pyrimidin-5-yl)thiophene-3-carboxylic acid] | < 10 nM |  | < 5000 nM
13 | CN1CCN(c2ccc(Nc3nc(-c4ccc(C(=O)O)cc4)nc4cn[nH]c34)cc2)CC1 [Example #241, 4-(7-((4-(4-methylpiperazin-1-yl)phenyl)amino)-1H-pyrazolo[4,3-d]pyrimidin-5-yl)benzoic acid] | < 10 nM |  | < 5000 nM
14 | Cc1nc2cc(Nc3nc(-c4cccc(S(C)(=O)=O)c4)nc4cn[nH]c34)ccc2[nH]1 [Example #252, N-(2-methyl-1H-benzo[d]imidazol-5-yl)-5-(3-(methylsulfonyl)phenyl)-1H-pyrazolo[4,3-d]pyrimidin-7-amine] | 10 to 100 nM |  | < 5000 nM
15 | O=S(=O)(CCO)c1cccc(Nc2nc(-c3cccs3)nc3cn[nH]c23)c1 [Example #255, 2-((3-((5-(thiophen-2-yl)-1H-pyrazolo[4,3-d]pyrimidin-7-yl)amino)phenyl)sulfonyl)ethan-1-ol] | 100 to 1000 nM |  | < 5000 nM
16 | CS(=O)(=O)c1cccc(Nc2nc(-c3ccccc3F)nc3cn[nH]c23)c1 [Example #276, 5-(2-fluorophenyl)-N-(3-(methylsulfonyl)phenyl)-1H-pyrazolo[4,3-d]pyrimidin-7-amine] | 10 to 100 nM |  | < 5000 nM
17 | CS(=O)(=O)c1ccccc1Nc1nc(-c2ccccc2F)nc2cn[nH]c12 [Example #277, 5-(2-fluorophenyl)-N-(2-(methylsulfonyl)phenyl)-1H-pyrazolo[4,3-d]pyrimidin-7-amine] | 100 to 1000 nM |  | < 5000 nM
18 | Fc1ccc(-c2nc(Nc3ccc(N4CCOCC4)cc3)c3[nH]ncc3n2)c(F)c1 [Example #286, 5-(2,4-difluorophenyl)-N-(4-morpholinophenyl)-1H-pyrazolo[4,3-d]pyrimidin-7-amine] | 10 to 100 nM |  | < 5000 nM
19 | O=C1COc2ccc(-c3nc(Nc4ccc(N5CCOCC5)cc4)c4[nH]ncc4n3)cc2N1 [Example #288, 6-(7-((4-morpholinophenyl)amino)-1H-pyrazolo[4,3-d]pyrimidin-5-yl)-2H-benzo[b][1,4]oxazin-3(4H)-one] | 10 to 100 nM |  | < 5000 nM
20 | Cc1nc2cc(Nc3nc(-c4ccc5c(c4)NC(=O)CO5)nc4cn[nH]c34)ccc2[nH]1 [Example #289, 6-(7-((2-methyl-1H-benzo[d]imidazol-5-yl)amino)-1H-pyrazolo[4,3-d]pyrimidin-5-yl)-2H-benzo[b][1,4]oxazin-3(4H)-one] | 10 to 100 nM |  | < 5000 nM
21 | c1cc(N2CCOCC2)ccc1Nc1nc(-c2ccc3c(c2)NCCO3)nc2cn[nH]c12 [Example #301, 5-(3,4-dihydro-2H-benzo[b][1,4]oxazin-6-yl)-N-(4-morpholinophenyl)-1H-pyrazolo[4,3-d]pyrimidin-7-amine] | 10 to 100 nM | 100 to 1000 nM | 
22 | Cc1nc2cc(Nc3nc(-c4ccc5c(c4)NCCO5)nc4cn[nH]c34)ccc2[nH]1 [Example #302, 5-(3,4-dihydro-2H-benzo[b][1,4]oxazin-6-yl)-N-(2-methyl-1H-benzo[d]imidazol-5-yl)-1H-pyrazolo[4,3-d]pyrimidin-7-amine] | < 10 nM | 100 to 1000 nM | 
23 | CN1Cc2ccc(Nc3nc(-c4cccs4)nc4cn[nH]c34)cc2C1 [Example #303, N-(2-methylisoindolin-5-yl)-5-(thiophen-2-yl)-1H-pyrazolo[4,3-d]pyrimidin-7-amine] | < 10 nM | 100 to 1000 nM | 
24 | c1csc(-c2nc(Nc3ccc4c(c3)COC4)c3[nH]ncc3n2)c1 [Example #304, N-(1,3-dihydroisobenzofuran-5-yl)-5-(thiophen-2-yl)-1H-pyrazolo[4,3-d]pyrimidin-7-amine] | < 10 nM | 100 to 1000 nM | 
25 | CN(C)Cc1ccc(Nc2nc(-c3ccccc3F)nc3cn[nH]c23)cc1 [Example #311, N-(4-((dimethylamino)methyl)phenyl)-5-(2-fluorophenyl)-1H-pyrazolo[4,3-d]pyrimidin-7-amine] | 10 to 100 nM | 100 to 1000 nM | 
